± gives the standard deviation of the averaged measurements.
How the values were obtained:
DOXORUBICIN = compound: COc1cccc2c1C(=O)c1c(O)c3c(c(O)c1C2=O)C[C@@](O)(C(=O)CO)C[C@@H]3O[C@H]1C[C@H](N)[C@H](O)[C@H](C)O1 [DOXORUBICIN]; experiment: surviving fraction relative to DMSO-only wells; higher = less growth inhibition; settings: exposure time: 5 days
How it was run: (§1)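 Viability was determined by CellTiter-Glo luminescence, expressed as surviving fraction normalised to the median of DMSO-only wells. The cells were log-phase tumour cell lines seeded at 250–500 per well in 384-well plates and, after 24 hours, exposed continuously for five days to inhibitors at 0.5, 1, 5, 10, 50, 100, 500 and 1000 nM. Three screens per line were run, keeping only lines with replicate Pearson r >0.7 and median Z' >0.3.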

FLAVOPIRIDOL = compound: CN1CC[C@H](c2c(O)cc(O)c3c(=O)cc(-c4ccccc4Cl)oc23)[C@H](O)C1 [FLAVOPIRIDOL]; experiment: as above; settings: exposure time: 5 days
How it was run: as §1

Test System | surviving fraction (DOXORUBICIN; 0.5 nM) | surviving fraction (DOXORUBICIN; 1 nM) | surviving fraction (DOXORUBICIN; 5 nM) | surviving fraction (DOXORUBICIN; 10 nM) | surviving fraction (DOXORUBICIN; 50 nM) | surviving fraction (DOXORUBICIN; 100 nM) | surviving fraction (DOXORUBICIN; 500 nM) | surviving fraction (DOXORUBICIN; 1000 nM) | surviving fraction (FLAVOPIRIDOL; 0.5 nM) | surviving fraction (FLAVOPIRIDOL; 1 nM) | surviving fraction (FLAVOPIRIDOL; 5 nM) | surviving fraction (FLAVOPIRIDOL; 10 nM) | surviving fraction (FLAVOPIRIDOL; 50 nM) | surviving fraction (FLAVOPIRIDOL; 100 nM) | surviving fraction (FLAVOPIRIDOL; 500 nM) | surviving fraction (FLAVOPIRIDOL; 1000 nM)
T47D BREAST | 1.03 ± 0.03 | 1 ± 0.038 | 0.892 ± 0.018 | 0.673 ± 0.064 | 0.708 ± 0.021 | 0.518 ± 0.023 | 0.197 ± 0.033 | 0.0751 ± 0.0032 | 0.974 ± 0.18 | 1.07 ± 0.022 | 1.01 ± 0.2 | 1.11 ± 0.039 | 1.15 ± 0.051 | 0.67 ± 0.073 | 0.195 ± 0.0027 | 0.148 ± 0.0041
CHLA90 AUTONOMIC GANGLIA | 1 ± 0.024 | 0.982 ± 0.024 | 0.866 ± 0.053 | 0.763 ± 0.041 | 0.414 ± 0.038 | 0.187 ± 0.026 | 0.054 ± 0.0035 | 0.0323 ± 0.0021 | 0.987 ± 0.1 | 1 ± 0.12 | 0.906 ± 0.083 | 0.878 ± 0.021 | 0.826 ± 0.11 | 0.573 ± 0.072 | 0.0277 ± 0.0015 | 0.0247 ± 0.00058
SCC47 HEADNECK | 1.021 ± 0.0081 | 1.03 ± 0.11 | 1.09 ± 0.09 | 0.966 ± 0.051 | 0.573 ± 0.027 | 0.597 ± 0.039 | 0.09 ± 0.0027 | 0.0307 ± 0.0015 | 1.18 ± 0.052 | 1.2 ± 0.061 | 1.23 ± 0.093 | 1.15 ± 0.078 | 0.665 ± 0.013 | 0.153 ± 0.043 | 0.039 ± 0.0017 | 0.0353 ± 0.0029
CASKI CERVIX | 0.684 ± 0.14 | 0.85 ± 0.04 | 0.221 ± 0.044 | 0.292 ± 0.049 | 0.035 ± 0.005 | 0.143 ± 0.032 | 0.0187 ± 0.0021 | 0.0253 ± 0.0015 | 0.918 ± 0.045 | 0.969 ± 0.031 | 0.919 ± 0.055 | 0.888 ± 0.056 | 0.284 ± 0.028 | 0.0293 ± 0.0015 | 0.022 ± 0.001 | 0.0253 ± 0.00058
HU09 BONE | 0.924 ± 0.04 | 0.964 ± 0.11 | 0.861 ± 0.13 | 0.539 ± 0.1 | 0.0467 ± 0.0046 | 0.0277 ± 0.005 | 0.0227 ± 0.0023 | 0.0247 ± 0.0021 | 1.06 ± 0.12 | 1.08 ± 0.037 | 1.22 ± 0.14 | 1.08 ± 0.082 | 0.638 ± 0.051 | 0.0337 ± 0.0032 | 0.024 | 0.025 ± 0.0017
SAOS2 BONE | 1.13 ± 0.038 | 1.1 ± 0.054 | 1.09 ± 0.043 | 0.914 ± 0.055 | 0.277 ± 0.0081 | 0.111 ± 0.0087 | 0.036 | 0.0367 ± 0.0029 | 1.23 ± 0.13 | 1.18 ± 0.06 | 1.26 ± 0.039 | 1.14 ± 0.04 | 0.889 ± 0.048 | 0.159 ± 0.022 | 0.0307 ± 0.0015 | 0.0247 ± 0.0025
SUM149 BREAST | 1.01 ± 0.013 | 0.961 ± 0.13 | 0.401 ± 0.056 | 0.233 ± 0.025 | 0.186 ± 0.014 | 0.145 ± 0.0087 | 0.0277 ± 0.0031 | 0.0253 ± 0.00058 | 0.955 ± 0.031 | 1.07 ± 0.051 | 1.06 ± 0.033 | 1.06 ± 0.087 | 0.681 ± 0.027 | 0.0783 ± 0.029 | 0.018 ± 0.0027 | 0.0183 ± 0.0032
SYO1 SYNOVIAL | 0.944 ± 0.065 | 0.906 ± 0.017 | 0.39 ± 0.066 | 0.176 ± 0.05 | 0.0563 ± 0.015 | 0.0384 ± 0.0093 | 0.0205 ± 0.00087 | 0.0309 ± 0.0013 | 1.02 ± 0.044 | 1 ± 0.064 | 0.972 ± 0.073 | 0.881 ± 0.05 | 0.515 ± 0.0082 | 0.144 ± 0.0063 | 0.0511 ± 0.0021 | 0.0522 ± 0.004
DU4475 BREAST | 0.818 ± 0.31 | 1.23 ± 0.41 | 0.233 ± 0.071 | 0.139 ± 0.054 | 0.029 ± 0.0066 | 0.0287 ± 0.0051 | 0.025 ± 0.0046 | 0.0273 ± 0.0051 | 1.05 ± 0.1 | 1.08 ± 0.12 | 0.83 ± 0.07 | 0.914 ± 0.16 | 0.162 ± 0.021 | 0.0273 ± 0.0021 | 0.025 ± 0.0027 | 0.0267 ± 0.0021
JIMT1 BREAST | 0.943 ± 0.0048 | 0.963 ± 0.025 | 0.994 ± 0.04 | 0.901 ± 0.036 | 0.56 ± 0.055 | 0.48 ± 0.017 | 0.225 ± 0.012 | 0.087 ± 0.019 | 1 ± 0.012 | 1.01 ± 0.033 | 1.05 ± 0.047 | 1.02 ± 0.035 | 0.809 ± 0.019 | 0.2 ± 0.029 | 0.0467 ± 0.0053 | 0.0375 ± 0.0027
ASKA SYNOVIAL | 0.792 ± 0.014 | 0.5807 ± 0.0031 | 0.28 ± 0.0042 | 0.292 ± 0.007 | 0.204 ± 0.016 | 0.166 ± 0.0025 | 0.16 ± 0.0079 | 0.224 ± 0.0035 | 1.02 ± 0.087 | 1.02 ± 0.066 | 1.11 ± 0.054 | 1.11 ± 0.036 | 0.507 ± 0.065 | 0.202 ± 0.01 | 0.186 ± 0.012 | 0.261 ± 0.0078
H23 LUNG | 1.01 ± 0.016 | 1.03 ± 0.027 | 1 ± 0.034 | 0.629 ± 0.058 | 0.403 ± 0.031 | 0.237 ± 0.028 | 0.0293 ± 0.0015 | 0.0267 ± 0.0021 | 1.03 ± 0.034 | 1.05 ± 0.027 | 1.15 ± 0.073 | 1.18 ± 0.079 | 1.54 ± 0.11 | 0.5197 ± 0.005 | 0.0303 ± 0.0015 | 0.026 ± 0.001
SG27 HEADNECK | 0.988 ± 0.057 | 0.967 ± 0.037 | 1.09 ± 0.094 | 1.04 ± 0.059 | 0.949 ± 0.038 | 0.867 ± 0.081 | 0.097 ± 0.014 | 0.0447 ± 0.019 | 1.16 ± 0.11 | 1.04 ± 0.04 | 0.987 ± 0.12 | 1.02 ± 0.3 | 0.844 ± 0.087 | 0.368 ± 0.063 | 0.0753 ± 0.047 | 0.071 ± 0.032
BT549 BREAST | 1.07 ± 0.1 | 1.03 ± 0.23 | 0.896 ± 0.087 | 0.378 ± 0.095 | 0.229 ± 0.022 | 0.0903 ± 0.019 | 0.0257 ± 0.0057 | 0.0267 ± 0.0015 | 1.17 ± 0.052 | 1.13 ± 0.094 | 1.11 ± 0.07 | 0.994 ± 0.021 | 0.454 ± 0.035 | 0.074 ± 0.012 | 0.0343 ± 0.005 | 0.035 ± 0.007
SG43 HEADNECK | 0.854 ± 0.15 | 0.776 ± 0.14 | 0.802 ± 0.076 | 0.675 ± 0.16 | 0.453 ± 0.056 | 0.322 ± 0.067 | 0.0633 ± 0.027 | 0.048 ± 0.024 | 1.04 ± 0.084 | 1.18 ± 0.081 | 0.885 ± 0.11 | 1.07 ± 0.044 | 0.812 ± 0.049 | 0.562 ± 0.12 | 0.028 ± 0.0062 | 0.033 ± 0.0076
MDAMB157 BREAST | 0.918 ± 0.025 | 0.869 ± 0.053 | 0.498 ± 0.058 | 0.213 ± 0.02 | 0.375 ± 0.042 | 0.214 ± 0.014 | 0.053 ± 0.0027 | 0.0307 ± 0.0046 | 0.999 ± 0.025 | 0.921 ± 0.096 | 0.986 ± 0.073 | 0.927 ± 0.018 | 0.769 ± 0.022 | 0.3 ± 0.027 | 0.0433 ± 0.016 | 0.0383 ± 0.0076
SJSA1 BONE | 1.02 ± 0.015 | 0.991 ± 0.027 | 0.927 ± 0.012 | 0.636 ± 0.052 | 0.564 ± 0.014 | 0.284 ± 0.013 | 0.0957 ± 0.005 | 0.0317 ± 0.0021 | 0.135 ± 0.0078 | 0.272 ± 0.042 | 1.71 ± 0.2 | 0.209 ± 0.011 | 0.0583 ± 0.0059 | 1.74 ± 0.06 | 1.64 ± 0.076 | 0.776 ± 0.074
CAL120 BREAST | 0.955 ± 0.015 | 0.916 ± 0.019 | 0.902 ± 0.024 | 0.822 ± 0.065 | 0.401 ± 0.038 | 0.285 ± 0.019 | 0.0702 ± 0.0011 | 0.0468 ± 0.0028 | 0.971 ± 0.055 | 0.972 ± 0.029 | 0.955 ± 0.058 | 0.949 ± 0.03 | 0.73 ± 0.034 | 0.314 ± 0.051 | 0.0425 ± 0.003 | 0.0403 ± 0.0016
SKBR3 BREAST | 0.804 ± 0.17 | 0.871 ± 0.1 | 0.852 ± 0.049 | 0.724 ± 0.16 | 0.375 ± 0.026 | 0.256 ± 0.0044 | 0.0547 ± 0.0061 | 0.0297 ± 0.0032 | 1.15 ± 0.074 | 1.0877 ± 0.00058 | 1.05 ± 0.022 | 1.06 ± 0.092 | 0.541 ± 0.051 | 0.207 ± 0.035 | 0.032 ± 0.015 | 0.0233 ± 0.0031
A549 LUNG | 0.96 ± 0.032 | 0.964 ± 0.039 | 0.963 ± 0.046 | 1.01 ± 0.032 | 0.565 ± 0.031 | 0.496 ± 0.017 | 0.189 ± 0.015 | 0.083 ± 0.001 | 1.04 ± 0.011 | 1.05 ± 0.015 | 1.06 ± 0.013 | 1.05 ± 0.018 | 1.18 ± 0.028 | 0.379 ± 0.11 | 0.0697 ± 0.0058 | 0.0687 ± 0.0038
